Results taken from paper PMC10146186, “Modulation of the Cytotoxic Properties of Pd(II) Complexes Based on Functionalized Carboxamides Featuring Labile Phosphoryl Coordination Sites” (Pharmaceutics, 2023).
Like-named read-outs stand apart in the source and are kept apart here.

Legend:
[1] = test system: PC3 prostate adenocarcinoma cells; assay: MTT cytotoxicity assay, PC3; type: cell-based, human; conditions: 48 h exposure, read-out: IC50 ± SD, PC3
Procedure: (§1) To characterize the antitumor potential of the resulting Pd(II) pincer complexes, their cytotoxicities against a panel of human solid and hematopoietic cancer cell lines, including colorectal carcinoma (HCT116), breast cancer (MCF7), prostate adenocarcinoma (PC3), glioblastoma (U251), ovarian adenocarcinoma (Scov3), chronic myelogenous leukemia (K562) and its resistant subclone (K562/iS9), multiple plasmacytoma (AMO1), and acute lymphoblastic leukemia (H9) cell lineages, were evaluated using the conventional MTT assay. […] For comparison, the inhibitory effects of the compounds explored on noncancerous human embryonic kidney cells HEK293 as well as transformed breast cells HBL100 and their doxorubicin-resistant analogs HBL100/Dox were also investigated under the same conditions.
(§2) The cytotoxic activity of the compounds explored was investigated on human colorectal carcinoma (HCT116), breast cancer (MCF7), prostate adenocarcinoma (PC3), glioblastoma (U251), ovarian adenocarcinoma (Scov3), chronic myelogenous leukemia (K562 and K562/iS9), multiple plasmacytoma (AMO1), and acute lymphoblastic leukemia (H9) cell lines, as well as human embryonic kidney (HEK293) and mammary epithelial (HBL100 and HBL100/Dox) cells used as representatives of pseudonormal cells. All cell lines were obtained from American Type Culture Collection (ATCC). RPMI-1640 and DMEM media were obtained from Gibco. Fetal bovine serum (FBS) was purchased from HyClone. Cells were cultured in RPMI-1640 or DMEM media supplemented with 10% FBS and 50 μg/mL gentamicin in a humidified incubator with 5% CO2 atmosphere. The cell growth inhibitory effects of the compounds were evaluated using the conventional MTT assay (ICN Biomedicals, Eschwege, Germany). Cells were seeded in triplicate at a cell density of 5 × 10^3/well in 96-well plates in 100 µL complete medium and preincubated for 24 h. The tested compounds were initially dissolved in DMSO. Then, the compounds at various concentrations were added to the media. The well plates were incubated for 48 h followed by addition of MTT solution (Sigma, Darmstadt, Germany) (20 μL, 5 mg/mL). The cells were incubated at 37 °C for further 3 h; then the culture medium was removed, and formazan crystals were dissolved in DMSO (70 μL). The absorbance of the resulting solutions was measured on a multi-well plate reader (Multiskan FC, Thermo scientific) at 530 nm to determine the percentage of surviving cells. The reported values of IC50 are the averages of three independent experiments (Table 2 and Table 3). Cisplatin (in the initial form of an infusion concentrate in natural saline solution) from a commercial source was used as the reference.

[2] = Solubility and stability in solvents (observation); type: physicochemical; conditions: for stability in DMSO: strongly coordinating media (DMSO)
Excerpt: To further explore the effect of lability of coordination sites on the biological activity of this type of cyclopalladated complexes, we decided to modify the second arm in the O,N,N-ligand framework, specifically the ancillary N-donor group, replacing the pyridine unit for a more rigid quinoline moiety. The reaction of [amino(phenyl)methyl]diphenylphosphine oxide hydrochloride with in situ generated quinoline-2-carboxylic acid chloride smoothly furnished functionalized amide 4, which, in turn, readily underwent direct cyclopalladation, affording Pd(II) pincer complex 5 (Scheme 4). The molecular structure of this palladocycle is presented in Figure 4, while its main geometric parameters are listed in Table S1 in the SI. Unfortunately, complex 5 appeared to be insoluble in common organic solvents and unstable in strongly coordinating media (e.g., DMSO); a possible reason for the stability issues is its highly constrained structure. Therefore, it was withdrawn from the cytotoxicity studies.
A solution of PdCl2(NCPh)2 (70 mg, 0.182 mmol) in CH2Cl2 (4 mL) was added dropwise to a solution of ligand 4 (84 mg, 0.182 mmol) and Et3N (26 μL, 0.186 mmol) in CH2Cl2 (6 mL). The reaction mixture was left under ambient conditions for 1 day and then filtered through a pad of cotton. The filtrate was evaporated to dryness. The resulting residue was washed with Et2O and purified by column chromatography on silica gel (eluent: CHCl3–EtOH (25:1)) to give 60 mg of the target pincer complex as a yellow crystalline solid. Yield: 55%. Mp: >175 °C (dec.). ^31P{^1H} NMR (161.98 MHz, CH2Cl2/D2O): δ 72.32 ppm (the ^1H and ^13C{^1H} NMR spectroscopic data for complex 5 were not obtained due to its low solubility in common organic solvents (e.g., chlorinated hydrocarbons and acetonitrile) and instability in strongly coordinating media (e.g., DMSO)). IR (KBr, ν/cm^–1): 521(w), 534(w), 561(s), 586(w), 699(m), 725(w), 766(w), 852(w), 927(vw), 998(w), 1024(m), 1042(m), 1121(m) (νP=O), 1154(w), 1341(w), 1378(br, m), 1437(m), 1461(w), 1493(w), 1516(w), 1560(w), 1595(w), 1633(s) (νC=O), 2923(vw), 3064(w). […]

[3] = test system: HEK293 embryonic kidney cells; assay: MTT cytotoxicity assay, HEK293; type: cell-based, human; conditions: HEK293 noncancerous cells, 48 h exposure, read-out: IC50 ± SD, HEK293
Procedure: as §1, §2

MCF7 breast cancer cells = assay: MTT cytotoxicity assay, MCF7; type: cell-based, human; conditions: for IC50: MCF7, MTT, 48 h exposure, read-out: IC50 ± SD, MCF7
Procedure: as §1, §2

[4] = test system: HCT116 colorectal carcinoma cells; assay: MTT cytotoxicity assay, HCT116; type: cell-based, human; conditions: read-out: IC50 ± SD, HCT116
Procedure: as §1, §2

AMO1 cells = assay: MTT assay with complexes preliminarily kept in DMSO–RPMI 1640, AMO1; type: cell-based, human; conditions: AMO1, kept in DMSO–RPMI 1640 (1/10 by volume) for 48 h before experiment, 72 h incubation
Procedure: (§3) The observed dependences correlate well with our previous findings on the lability of the phosphoryl sites in palladocycles 2a,b, 3a,b and can be rationalized in terms of their coordination behavior. […] However, the presence of an additional competitive chloride anion makes complex 2b potentially more susceptible to decoordination of the phosphoryl arm. […] At least the N,N-bidentately bound core remained intact in the mentioned media over a period of 48 h.
(§4) Figure S51. Effect of complexes 2b (a) and 3b (b) dissolved either in neat DMSO or DMSO–RPMI 1640 mixture on AMO1 and K562 cells (cell viability was defined by the conventional MTT assay according to the methodology described in the Experimental section with slight modifications: the complexes explored were preliminarily kept in neat DMSO or DMSO–RPMI 1640 mixture for 2 days before the experiments and the following incubation period […]

U251 glioblastoma cells = assay: MTT cytotoxicity assay, U251; type: cell-based, human; conditions: read-out: IC50 ± SD, U251
Procedure: as §1, §2

[5] = test system: HBL100 mammary epithelial cells; assay: MTT cytotoxicity assay, HBL100; type: cell-based, human; conditions: read-out: IC50 ± SD, HBL100
Procedure: as §1, §2

K562 cells = assay: MTT assay with complexes preliminarily kept in DMSO–RPMI 1640, K562; type: cell-based, human; conditions: K562, kept in DMSO–RPMI 1640 (1/10 by volume) for 48 h before experiment, 72 h incubation
Procedure: as §3, §4

[6] = test system: H9 acute lymphoblastic leukemia cells; assay: MTT cytotoxicity assay, H9; type: cell-based, human; conditions: 48 h exposure, read-out: IC50 ± SD, H9
Procedure: as §1
as §2, with “Then, the compounds at various concentrations were added to the media. The well plates were incubated for 48 h followed by addition of MTT solution (Sigma, Darmstadt, Germany) (20 μL, 5 mg/mL). The cells were incubated at 37 °C for further 3 h; then the culture medium was removed, and formazan crystals were dissolved in DMSO (70 μL).” left out, “The reported values of IC50 are the averages of three independent experiments (Table 2 and Table 3). Cisplatin (in the initial form of an infusion concentrate in natural saline solution) from a commercial source was used as the reference.” left out

[7] = test system: K562 chronic myelogenous leukemia cells; assay: MTT cytotoxicity assay, K562; type: cell-based, human; conditions: 48 h exposure, read-out: IC50 ± SD, K562
Procedure: as §1, §2

[8] = test system: Scov3 ovarian adenocarcinoma cells; assay: MTT cytotoxicity assay, Scov3; type: cell-based, human; conditions: Scov3, MTT, 48 h exposure, read-out: IC50 ± SD, Scov3
Procedure: as §1, §2

[9] = test system: K562/iS9 resistant chronic myelogenous leukemia cells; assay: MTT cytotoxicity assay, K562/iS9; type: cell-based, human; conditions: read-out: IC50 ± SD, K562/iS9
Procedure: as §1, §2

[10] = test system: HBL100/Dox doxorubicin-resistant mammary epithelial cells; assay: MTT cytotoxicity assay, HBL100/Dox; type: cell-based, human; conditions: for IC50: MTT, 48 h exposure, read-out: IC50 ± SD, HBL100/Dox
Procedure: as §1, §2

[11] = test system: AMO1 multiple plasmacytoma cells; assay: MTT cytotoxicity assay, AMO1; type: cell-based, human; conditions: for IC50: AMO1, MTT, 48 h exposure, read-out: IC50 ± SD, AMO1
Procedure: as §1, §2

[12] = 31P NMR stability study in CDCl3–(CD3)2SO mixture; type: physicochemical; conditions: commensurable decomposition degree reached only in a week
Procedure: as §3

| SMILES | IC50 [1] | stability in DMSO [2] | IC50 [3] | IC50 (MCF7 breast cancer cells) | IC50 ([4]; 48 h exposure) | IC50 (U251 glioblastoma cells; 48 h exposure) | IC50 ([5]; 48 h exposure) | IC50 [7] | IC50 [8] | IC50 ([9]; 48 h exposure) | IC50 [10] | IC50 [11] | other results |
| --- | --- | --- | --- | --- | --- | --- | --- | --- | --- | --- | --- | --- | --- |
| O=C(c1cccc2cccnc12)[N](CP(=O)(c1ccccc1)c1ccccc1)[Pd][Cl] [complex 7, [κ^3-O,N,N-(L)Pd(II)Cl]] | 52 ± 10 µM | stable | 23 ± 3 µM | 58 ± 12 µM | 38 ± 6 µM | – | – | – | – | – | – | – | – |
| O=C(c1ccccn1)[N]([Pd][Cl])C(c1ccccc1)P(=O)(c1ccccc1)c1ccccc1 (stereo not drawn) [complex 3b, [κ^3-O,N,N-(L)Pd(II)Cl]] | 16 ± 2 µM | – | 12.5 ± 3.5 µM | 13 ± 1.5 µM | 4 ± 2 µM | 43 ± 5 µM | 17.8 ± 0.8 µM | 6.4 ± 0.4 µM | 40 ± 0.6 µM | 7.2 ± 1 µM | 28 ± 2.6 µM | 2.7 ± 0.5 µM | cytotoxic activity after keeping in DMSO–RPMI 1640 mixture vs neat DMSO (AMO1 cells): comparable; cytotoxic activity after keeping in DMSO–RPMI 1640 mixture vs neat DMSO (K562 cells): comparable; IC50 [6]: 3.2 ± 0.2 µM; stability in CDCl3–(CD3)2SO mixture [12]: quite stable |
| O=C(c1ccc2ccccc2n1)[N]([Pd][Cl])C(c1ccccc1)P(=O)(c1ccccc1)c1ccccc1 (stereo not drawn) [complex 5, [κ^3-O,N,N-(L)Pd(II)Cl]] | – | unstable | – | – | – | – | – | – | – | – | – | – | solubility in common organic solvents ([2]; common organic solvents): insoluble |
| O=C(NCP(=O)(c1ccccc1)c1ccccc1)c1ccccn1 [ligand 1a, N-[(Diphenylphosphoryl)methyl]picolinamide] | – | – | – | – | – | – | – | – | – | – | – | – | IC50 ([1]; Homo sapiens): > 100 µM; IC50 (U251 glioblastoma cells; Homo sapiens, U-251, 48 h exposure): > 100 µM; IC50 ([5]; Homo sapiens, HBL-100, 48 h exposure): > 100 µM; IC50 ([6]; Homo sapiens): > 80 µM; IC50 ([7]; Homo sapiens): > 80 µM; IC50 ([8]; Homo sapiens): > 100 µM; IC50 ([9]; Homo sapiens, K562i/S9, 48 h exposure): > 80 µM; percentage of live cells ([10]; compound concentration 100.0 μM, 48 h): 35% ^3; percentage of live cells ([11]; AMO1, compound concentration 80.0 μM, 48 h): 41% ^3; IC50 ([3]; Homo sapiens): > 100 µM; percentage of live cells (MCF7 breast cancer cells; MCF7, compound concentration 100.0 μM, 48 h): 46% ^3; IC50 ([4]; Homo sapiens, HCT-116, 48 h exposure): > 100 µM |
| N.N.[Cl][Pt][Cl] [Cisplatin, reference compound] | 16 ± 3 µM | – | 12.5 ± 1.5 µM | 25 ± 4 µM | 18 ± 2 µM | 16.5 ± 1.5 µM | 14.6 ± 3.6 µM | 15.5 ± 0.5 µM | 21 ± 3 µM | 16 ± 2 µM | 23.6 ± 3.6 µM | 3.2 ± 0.6 µM | – |
